What all share (format): biochemical
One assay has as its target T1, hADAM 17 (Homo sapiens, UniProt P78536).
T1 construct: purchased R&D systems
Kind of assay: Residual enzyme activity of other metalloproteases. Particulars: read-out: Residual enzyme activity ADAM17; for remaining activity at 10 µM: 10 μM inhibitor; for remaining activity at 200 µM: 200 μM inhibitor. On the procedure:
(§1) The determination of enzymatic activity was based on the cleavage of internally quenched peptide substrates. A typical assay of 250 μl total volume measured in black 96 well plates consisted of 100 μl buffer, 50 μl enzyme at a final concentration of 5e-8 M to 2e-10 M, 50 μl substrate (0.15 to 80 μM, in buffer, 0.5% DMSO) and 50 μl inhibitor solution (in buffer, 1% DMSO). In case of 125 μl assay volume (black 96 half area well plates) all volumes were cut in half. Enzymatic activity of ADAMs was measured in 384 well plates with 60 μl total assay volume consisting of 20 μl inhibitor, 20 μl buffer, 10 μl enzyme and 10 μl substrate.

For another assay, the target named is T2, hADAM 10 (Homo sapiens, UniProt O14672).
T2 construct: purchased R&D systems
T2 sequence (O14672 214-748): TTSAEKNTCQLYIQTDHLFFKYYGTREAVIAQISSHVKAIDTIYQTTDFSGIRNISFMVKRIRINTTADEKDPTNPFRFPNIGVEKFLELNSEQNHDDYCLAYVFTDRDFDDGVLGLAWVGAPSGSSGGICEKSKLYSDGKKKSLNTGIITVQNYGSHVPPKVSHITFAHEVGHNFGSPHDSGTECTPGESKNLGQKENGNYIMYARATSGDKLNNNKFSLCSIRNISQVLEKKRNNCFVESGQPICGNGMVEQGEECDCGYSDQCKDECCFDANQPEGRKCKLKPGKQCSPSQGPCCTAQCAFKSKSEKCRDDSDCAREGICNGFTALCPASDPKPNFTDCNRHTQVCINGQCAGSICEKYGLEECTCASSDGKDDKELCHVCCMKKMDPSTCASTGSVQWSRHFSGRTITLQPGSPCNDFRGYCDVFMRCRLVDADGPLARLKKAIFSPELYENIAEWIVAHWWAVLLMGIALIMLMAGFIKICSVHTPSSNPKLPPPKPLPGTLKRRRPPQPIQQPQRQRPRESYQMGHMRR
Description: Residual enzyme activity of other metalloproteases. The note with it: read-out: Residual enzyme activity ADAM10; for remaining activity at 10 µM: 10 μM inhibitor; for remaining activity at 200 µM: 200 μM inhibitor. The method, then: as §1

For the next assay, the target named is T3, hMMP 9 (Homo sapiens, UniProt P14780).
T3 construct: purchased R&D systems
T3 sequence (P14780 107-707 limits assumed): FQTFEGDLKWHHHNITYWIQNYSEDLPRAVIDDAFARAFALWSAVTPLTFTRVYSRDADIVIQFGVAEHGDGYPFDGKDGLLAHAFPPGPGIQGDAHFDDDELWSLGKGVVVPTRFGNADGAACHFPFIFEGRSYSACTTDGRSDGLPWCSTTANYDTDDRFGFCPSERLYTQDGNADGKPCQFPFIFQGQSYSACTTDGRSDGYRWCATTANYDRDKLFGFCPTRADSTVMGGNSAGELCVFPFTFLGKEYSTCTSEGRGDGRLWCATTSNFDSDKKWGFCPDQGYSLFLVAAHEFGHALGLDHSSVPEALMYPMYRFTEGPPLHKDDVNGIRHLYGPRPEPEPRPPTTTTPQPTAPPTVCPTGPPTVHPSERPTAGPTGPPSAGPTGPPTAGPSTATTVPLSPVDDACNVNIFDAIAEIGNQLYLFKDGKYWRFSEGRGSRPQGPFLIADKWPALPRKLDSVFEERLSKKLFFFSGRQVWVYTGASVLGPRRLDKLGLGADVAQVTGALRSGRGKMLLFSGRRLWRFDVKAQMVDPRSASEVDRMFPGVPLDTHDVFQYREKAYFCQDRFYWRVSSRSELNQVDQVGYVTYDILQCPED
Kind of assay: Residual enzyme activity of other metalloproteases. The note with it: read-out: Residual enzyme activity MMP9; for remaining activity at 10 µM: 10 μM inhibitor; for remaining activity at 200 µM: 200 μM inhibitor. On the procedure: as §1
(§2) MMPs were activated prior to measurement by APMA (p-aminophenylmercuric acetate) treatment according to manufacturer's instructions (R&D systems).

In the next assay the target is T4, hMeprin α (Homo sapiens, UniProt Q16819).
T4 sequence (Q16819 66-746): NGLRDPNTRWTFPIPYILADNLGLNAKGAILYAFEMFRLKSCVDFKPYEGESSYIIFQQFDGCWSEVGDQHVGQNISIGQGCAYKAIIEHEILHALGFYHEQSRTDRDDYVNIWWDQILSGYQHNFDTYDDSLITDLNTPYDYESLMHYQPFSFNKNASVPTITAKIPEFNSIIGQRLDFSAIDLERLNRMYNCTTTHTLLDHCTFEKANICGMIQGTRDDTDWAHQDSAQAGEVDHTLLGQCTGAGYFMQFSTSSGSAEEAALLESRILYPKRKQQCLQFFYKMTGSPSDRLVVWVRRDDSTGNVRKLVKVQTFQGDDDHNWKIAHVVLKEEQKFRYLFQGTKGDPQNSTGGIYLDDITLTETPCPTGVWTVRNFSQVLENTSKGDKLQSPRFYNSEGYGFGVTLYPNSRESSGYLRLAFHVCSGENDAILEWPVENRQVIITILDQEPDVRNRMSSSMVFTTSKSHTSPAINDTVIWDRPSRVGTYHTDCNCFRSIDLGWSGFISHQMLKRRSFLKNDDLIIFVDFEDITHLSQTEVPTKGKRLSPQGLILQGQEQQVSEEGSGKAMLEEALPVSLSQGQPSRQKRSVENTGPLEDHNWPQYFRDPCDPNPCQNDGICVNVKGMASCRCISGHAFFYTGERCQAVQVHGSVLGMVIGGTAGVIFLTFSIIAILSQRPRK
Kind of assay: Enzymatic assay, quenched peptide substrate cleavage, method B. Particulars: geometric mean (geometric SD factor in parentheses); for Ki: Morrison's equation, read-out: Meprin alpha Ki(app); for IC50: read-out: Meprin alpha IC50. The procedure, abridged:
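Cleavage of internally quenched peptides was read at 340/420 nm and 30° C., with enzyme at 5e-8 to 2e-10 M and substrate at 0.15–80 μM. Inhibitor solutions contained 1% DMSO and substrate 0.5% DMSO. Method B gave Ki(app) values via Morrison's equation, with kinetics measured in at least duplicate on separate days.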

A further assay addresses T5, hMMP 13 (Homo sapiens, UniProt P45452).
T5 construct: purchased R&D systems
Description: Residual enzyme activity of other metalloproteases. Particulars: read-out: Residual enzyme activity MMP13; for remaining activity at 10 µM: 10 μM inhibitor; for remaining activity at 200 µM: 200 μM inhibitor. The method, then: (§3) A typical assay of 250 μl total volume measured in black 96 well plates consisted of 100 μl buffer, 50 μl enzyme at a final concentration of 5e-8 M to 2e-10 M, 50 μl substrate (0.15 to 80 μM, in buffer, 0.5% DMSO) and 50 μl inhibitor solution (in buffer, 1% DMSO). In case of 125 μl assay volume (black 96 half area well plates) all volumes were cut in half. Enzymatic activity of ADAMs was measured in 384 well plates with 60 μl total assay volume consisting of 20 μl inhibitor, 20 μl buffer, 10 μl enzyme and 10 μl substrate.
as §2

Another assay has as its target T6, hMMP 2 (Homo sapiens, UniProt P08253).
T6 construct: purchased Abnova
T6 sequence (P08253 110-660): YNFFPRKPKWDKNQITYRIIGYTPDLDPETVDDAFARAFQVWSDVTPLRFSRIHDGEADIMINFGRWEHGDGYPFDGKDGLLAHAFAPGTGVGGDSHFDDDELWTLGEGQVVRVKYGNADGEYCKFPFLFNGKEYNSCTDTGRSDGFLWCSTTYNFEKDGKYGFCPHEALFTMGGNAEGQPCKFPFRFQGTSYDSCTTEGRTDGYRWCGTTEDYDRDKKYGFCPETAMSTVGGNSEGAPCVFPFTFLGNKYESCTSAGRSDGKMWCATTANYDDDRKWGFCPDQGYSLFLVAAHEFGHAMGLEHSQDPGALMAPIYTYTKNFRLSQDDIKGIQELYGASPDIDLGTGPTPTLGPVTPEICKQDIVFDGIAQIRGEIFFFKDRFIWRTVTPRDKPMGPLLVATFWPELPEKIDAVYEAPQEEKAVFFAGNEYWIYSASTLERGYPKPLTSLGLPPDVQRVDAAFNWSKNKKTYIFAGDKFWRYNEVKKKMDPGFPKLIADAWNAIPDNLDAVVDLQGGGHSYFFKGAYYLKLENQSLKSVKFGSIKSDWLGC
Kind of assay: Residual enzyme activity of other metalloproteases. The note with it: read-out: Residual enzyme activity MMP2; for remaining activity at 10 µM: 10 μM inhibitor; for remaining activity at 200 µM: 200 μM inhibitor. The method, then: as §3, §2

SMILES strings stand for the structures.

T1 sequence (P78536 215-824): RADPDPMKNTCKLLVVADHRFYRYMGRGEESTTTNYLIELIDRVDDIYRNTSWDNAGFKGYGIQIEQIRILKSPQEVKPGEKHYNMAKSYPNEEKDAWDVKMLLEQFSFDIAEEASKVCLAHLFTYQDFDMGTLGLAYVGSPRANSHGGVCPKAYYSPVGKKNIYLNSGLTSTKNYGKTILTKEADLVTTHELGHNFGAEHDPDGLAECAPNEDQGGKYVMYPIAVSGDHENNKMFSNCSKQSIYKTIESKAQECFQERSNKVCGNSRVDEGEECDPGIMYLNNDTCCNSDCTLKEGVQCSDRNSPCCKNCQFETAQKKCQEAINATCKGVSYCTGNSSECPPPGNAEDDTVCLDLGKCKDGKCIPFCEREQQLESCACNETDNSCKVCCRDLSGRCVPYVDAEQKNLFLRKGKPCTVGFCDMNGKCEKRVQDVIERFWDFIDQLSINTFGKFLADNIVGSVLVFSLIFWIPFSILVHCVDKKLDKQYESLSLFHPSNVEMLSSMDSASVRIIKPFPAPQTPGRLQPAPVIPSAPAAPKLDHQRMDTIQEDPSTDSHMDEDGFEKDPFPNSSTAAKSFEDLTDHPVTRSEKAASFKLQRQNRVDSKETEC

Usually IC50 stands for the point on the concentration scale where inhibition reaches its midpoint. With `O=C(Cc1c(-c2ccccc2)nn(Cc2cccc(C(=O)O)c2)c1-c1ccccc1)NO` [Example 41, 3-[[4-[2-(Hydroxyamino)-2-oxo-ethyl]-3,5-diphenyl-1H-pyrazol-1-yl]methyl]benzoic acid], the remaining activity at 10 µM at hADAM 17 worked out at 84%; on hADAM 10 it was 92%; on hMMP 9, 83%; at hMMP 13 it was 83%; on hMMP 2, 89%. Also, the remaining activity at 200 µM at hADAM 17 was found to be 25%; on hADAM 10, 66%; on hMMP 9, 36%; on hMMP 13 it was 34%; on hMMP 2, 34%. Besides, the Ki on hMeprin α is 0.33 nM. In addition, at hMeprin α, the half-maximal inhibitory concentration (IC50) was determined as 0.39 nM.

`O=C(CCc1c(-c2ccccc2)n[nH]c1-c1ccccc1)NO` [Example 3, 3-(3,5-Diphenyl-1H-pyrazol-4-yl)propanehydroxamic acid]: the remaining activity at 10 µM is 76% on hADAM 17; 66% on hADAM 10; 93% at hMMP 9; 93% on hMMP 13; 97% at hMMP 2. Moreover, the remaining activity at 200 µM came to 27% on hADAM 17; 12% on hADAM 10; 65% on hMMP 9; 68% at hMMP 13; 77% on hMMP 2. Further, the Ki at hMeprin α turned out to be 78 nM. In addition, on hMeprin α, the IC50 was determined as 80 nM.

Consider `O=C(Cc1c(-c2ccc3c(c2)OCO3)n[nH]c1-c1ccccc1)NO` [Example 50, 2-[3-(1,3-Benzodioxol-5-yl)-5-phenyl-1H-pyrazol-4-yl]ethanehydroxamic acid], for which the remaining activity at 10 µM at hADAM 17 came to 51%; at hADAM 10 it was 59%; at hMMP 9, 72%; at hMMP 13 it was 71%; on hMMP 2 it was 41%. Also, the remaining activity at 200 µM at hADAM 17 turned out to be 5%; on hADAM 10, 5%; on hMMP 9, 16%; on hMMP 13, 10%; on hMMP 2 it was 8%. In addition, the Ki on hMeprin α turned out to be 1 nM. Moreover, at hMeprin α, the IC50 was 1 nM.

With `O=C(Cc1c(-c2ccccc2)nn(Cc2ccc(Cl)c(O)c2F)c1-c1ccccc1)NO` [Example 42, 2-[1-(4-Chloro-2-fluoro-3-hydroxybenzyl)-3,5-diphenyl-1H-pyrazol-4-yl]ethanehydroxamic acid], the remaining activity at 10 µM worked out at 72% at hADAM 17; 85% on hADAM 10; 70% at hMMP 9; 84% at hMMP 13; 69% at hMMP 2. For the same compound, the remaining activity at 200 µM at hADAM 17 amounted to 14%; on hADAM 10, 34%; on hMMP 9 it was 14%; on hMMP 13, 9%; on hMMP 2, 18%. For the same compound, on hMeprin α, the Ki worked out at 0.08 nM. Also, at hMeprin α, the IC50 was 0.16 nM.

On to `O=C(Cc1c(-c2ccccc2)nn(Cc2ccc(C(=O)O)cc2)c1-c1ccccc1)NO` [Example 40, 4-[[4-(2-(Hydroxyamino)-2-oxo-ethyl]-3,5-diphenyl-1H-pyrazol-1-yl]methyl]benzoic acid], for which the remaining activity at 10 µM on hADAM 17 was found to be 67%; at hADAM 10, 91%; at hMMP 9, 80%; on hMMP 13, 86%; on hMMP 2, 85%. Also, the remaining activity at 200 µM on hADAM 17 stood at 9%; on hADAM 10 it was 43%; at hMMP 9, 30%; at hMMP 13 it was 22%; at hMMP 2 it was 24%. On hMeprin α, the Ki amounted to 0.38 nM. The IC50 on hMeprin α was determined as 0.45 nM.

On to `O=C(Cc1c(-c2cccc(C(=O)O)c2)n[nH]c1-c1ccc(Cl)c(O)c1F)NO` [Example 63, 3-[5-(4-Chloro-2-fluoro-3-hydroxy-phenyl)-4-[2-(hydroxyamino)-2-oxo-ethyl]-1H-pyrazol-3-yl]benzoic acid], for which the remaining activity at 10 µM on hADAM 17 came out at 99%; on hADAM 10, 90%; on hMMP 9, 94%; on hMMP 13 it was 105%; at hMMP 2, 95%. The remaining activity at 200 µM was found to be 91% on hADAM 17; 74% at hADAM 10; 71% on hMMP 9; 73% on hMMP 13; 81% at hMMP 2. Besides, the Ki at hMeprin α came to 5 nM. The IC50 on hMeprin α stood at 5 nM.

For `O=C(Cc1c(-c2cc(F)c(O)c(Cl)c2)n[nH]c1-c1ccccc1)NO` [Example 54, 2-[3-(3-Chloro-5-fluoro-4-hydroxy-phenyl)-5-phenyl-1H-pyrazol-4-yl]ethanehydroxamic acid], the remaining activity at 10 µM on hADAM 17 worked out at 68%; on hADAM 10 it was 104%; at hMMP 9, 86%; at hMMP 13, 88%; at hMMP 2 it was 66%. Moreover, the remaining activity at 200 µM is 5% at hADAM 17; 61% at hADAM 10; 39% at hMMP 9; 28% at hMMP 13; 17% at hMMP 2. Besides, the Ki at hMeprin α was determined as 0.14 nM. Besides, on hMeprin α, the IC50 amounted to 0.21 nM.

For the origin of these results see US20250388544A1, “HETEROAROMATIC INHIBITORS OF ASTACIN PROTEINASES” (VIVORYON THERAPEUTICS N.V., priority 2019, published 2025).
